Common to all, as to assay type: functional, cell-based
Settings in all cases: Homo sapiens

Test [1] concerns A-431. Description: Cell viability in A431 cells unstimulated with EGF was tested when incubated with concentration up to 10 uM after 48 h; Did not affect the viability.
Test [2] has as its system A-431. Description: Cell viability in A431 cells when stimulated with EGF was tested when incubated with concentration up to 10 uM after 48 h; Did not affect the viability.
Test [3] relates to A-431. In words: Cell viability in A431 cells when stimulated with EGF was tested when incubated with concentration 0.01 uM after 48 h; Cell death.
Test [4] has as its system A-431. In words: Cell viability in A431 cells when stimulated with EGF was tested when incubated with concentration in the range of 1-10 uM of the compound after 48 h; Cell death.
For test [5], the system named is A-431. In words: Cell viability in A431 cells unstimulated with EGF was tested when incubated with concentration in the range of 1-10 uM after 48 h; Did not affect the viability.
Test [6] has as its system A-431. In words: Cell viability in A431 cells when stimulated with EGF was tested when incubated with concentration 2 uM after 48 h; Cell death.
In test [7] the test system is A-431. In words: Cell viability in A431 cells unstimulated with EGF was tested when incubated with concentration at 2 uM after 48 h; Did not affect the viability.

As for `CC[C@H]1[C@@H](O)[C@H](C)C/C(C)=C/C=C/[C@H](OC)[C@@H]([C@@H](C)COC(c2ccccc2)(c2ccccc2)c2ccc(OC)cc2)OC(=O)/C(OC)=C/C(C)=C/[C@@H](C)[C@H]1O`, the Activity entry with A-431 [1] and in the test on A-431 [2] was “No effect” each time.
`CC[C@@H]([C@@H](O)[C@H](C)C/C(C)=C/C=C/[C@H](OC)[C@H](O)[C@@H](C)COC(c1ccccc1)(c1ccccc1)c1ccc(OC)cc1)[C@H](O)[C@H](C)/C=C(C)/C=C(\OC)C(=O)OC`: the Activity result in the test with A-431 [1] and with A-431 [3] was “No effect” each time.
In the case of `CC[C@H]1[C@@H](O)[C@H](C)C/C(C)=C/C=C/[C@H](OC)[C@@H]([C@@H](C)CO)OC(=O)/C(OC)=C/C(C)=C/[C@@H](C)[C@H]1O`, the Activity result with A-431 [4] and with A-431 [5] was “No effect” each time.
Regarding `C/C=C/[C@H]1O[C@@](O)([C@@H](C)[C@H](O)[C@H](C)[C@H]2OC(=O)/C(OC)=C/C(C)=C/[C@@H](C)[C@@H](O)[C@@H](CC)[C@@H](O)[C@H](C)C/C(C)=C/C=C/[C@@H]2OC)C[C@@H](O)[C@@H]1C`, the Activity entry with A-431 [6] and in the test with A-431 [7] was “No effect” each time.

Source of the values: ChEMBL document CHEMBL1135559, “Vacuolar-type H(+)-ATPase inhibitory activity of synthetic analogues of the concanamycins: is the hydrogen bond network involving the lactone carbonyl, the hemiacetal hydroxy group, and the C-19 hydroxy group essential for the biological activity of the concanamycins?” (Bioorg Med Chem Lett, 2002).
